The values below come from US20260272878A1, “ADAR1 INHIBITORS AND USES THEREOF” (THE WISTAR INSTITUTE OF ANATOMY AND BIOLOGY, priority 2023, published 2026).

One experiment deals with T1, ADAR1p110 (Homo sapiens, UniProt P55265).
T1 construct: HAT (N); made in house; host or cells: Sf9 cells (baculovirus)
T1 sequence (P55265 1-931 isoform P55265-5): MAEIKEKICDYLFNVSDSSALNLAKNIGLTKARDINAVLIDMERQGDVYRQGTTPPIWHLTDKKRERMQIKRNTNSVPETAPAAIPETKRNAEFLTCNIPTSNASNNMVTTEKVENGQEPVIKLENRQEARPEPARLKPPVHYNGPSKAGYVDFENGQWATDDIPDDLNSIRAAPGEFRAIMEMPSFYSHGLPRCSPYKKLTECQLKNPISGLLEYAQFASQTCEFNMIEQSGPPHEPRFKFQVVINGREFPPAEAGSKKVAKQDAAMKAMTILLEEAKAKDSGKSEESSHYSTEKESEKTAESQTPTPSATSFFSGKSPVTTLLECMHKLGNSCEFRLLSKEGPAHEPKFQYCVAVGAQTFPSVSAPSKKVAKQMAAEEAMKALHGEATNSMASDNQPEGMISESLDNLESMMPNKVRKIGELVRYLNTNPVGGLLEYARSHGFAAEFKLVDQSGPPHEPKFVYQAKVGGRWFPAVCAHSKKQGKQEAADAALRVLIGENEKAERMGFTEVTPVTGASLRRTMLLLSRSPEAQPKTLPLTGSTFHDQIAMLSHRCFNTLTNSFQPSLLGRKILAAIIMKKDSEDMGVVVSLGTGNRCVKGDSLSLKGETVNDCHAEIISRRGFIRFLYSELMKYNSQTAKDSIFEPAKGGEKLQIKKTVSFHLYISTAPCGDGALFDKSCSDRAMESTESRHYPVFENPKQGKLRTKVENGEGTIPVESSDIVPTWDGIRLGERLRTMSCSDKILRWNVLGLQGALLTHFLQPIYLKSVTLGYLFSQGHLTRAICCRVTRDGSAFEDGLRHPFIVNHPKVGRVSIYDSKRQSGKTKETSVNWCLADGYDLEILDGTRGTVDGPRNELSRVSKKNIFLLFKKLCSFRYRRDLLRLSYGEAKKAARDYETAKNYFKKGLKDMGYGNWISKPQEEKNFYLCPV
Nature of the experiment: In vitro editing assay with recombinant ADAR1p110 and synthetic dsRNA. As to conditions: for IC50: ADAR1p110, dose-dependent in vitro editing assay; for Inhibition of ADAR1p110 editing: in vitro editing assay, result in words. It counts as biochemical. On the procedure: In vitro editing assay using purified HAT-ADAR1p110 and a synthetic dsRNA was conducted at varying concentrations of ADAR1i-124. The editing efficiency was determined by the guanosine peak replacing the adenosine peak of cDNA sequencing chromatograms.
The in vitro editing reaction mixture, containing 5 nM of telomere RNA:RNA duplex substrates and 75 nM of HAT-ADAR1p110-WT, FLAG-ADAR1p110-WT, or HA-ADAR1p110-EAA protein, was incubated at 37° C. for 2 h in in vitro editing buffer I (20 mM HEPES-KOH PH 7.5, 100 mM NaCl, 0.01% NP-40, 5% glycerol, 1 mM DTT). For editing of RNA:DNA hybrid substrates, in vitro editing buffer II (20 mM HEPES-KOH PH 7.5, 20 mM NaCl, 0.01% NP-40, 5% glycerol, 1 mM DTT) was used. Edited RNA or DNA strands were purified using Dynabeads MyOne Streptavidin C1 (Thermo Fisher Scientific). To remove opposite RNA or DNA strands, rNase H (NEB) or TURBO dNase (Thermo Fisher Scientific) was used, respectively. For sequencing of edited substrates, reverse transcription-PCR was carried out for RNA strands, while PCR was carried out for DNA strands. RT reactions were carried out using SuperScript III Reverse Transcriptase (Thermo Fisher Scientific), and PCR reactions were performed using Platinum Taq DNA polymerase (Thermo Fisher Scientific). PCR products were sequenced using a specific sequencing primer, and the ratio of A and G peaks in the chromatograms were analyzed by CodonCode Aligner (CodonCode Corporation).
In a previous study, the 54 compounds identified in the high-throughput screen were further tested in the in vitro editing assay described in Examples 2 and 3. The in vitro editing reaction mixture, containing 5 nM of telomere RNA:RNA duplex substrates and 75 nM of HAT-ADAR1p110-WT, FLAG-ADAR1p110-WT, or HA-ADAR1p110-EAA protein, was incubated at 37° C. for 2 h in in vitro editing buffer I (20 mM HEPES-KOH PH 7.5, 100 mM NaCl, 0.01% NP-40, 5% glycerol, 1 mM DTT) with 10 microM test compound. For editing of RNA:DNA hybrid substrates, in vitro editing buffer II (20 mM HEPES-KOH PH 7.5, 20 mM NaCl, 0.01% NP-40, 5% glycerol, 1 mM DTT) was used. Edited RNA or DNA strands were purified using Dynabeads MyOne Streptavidin C1 (Thermo Fisher Scientific). To remove opposite RNA or DNA strands, Rnase H (NEB) or TuRBO Dnase (Thermo Fisher Scientific) was used, respectively. For sequencing of edited substrates, reverse transcription-PCR was carried out for RNA strands, while PCR was carried out for DNA strands. RT reactions were carried out using SuperScript III
Reverse Transcriptase (Thermo Fisher Scientific), and PCR reactions were performed using Platinum Taq DNA polymerase (Thermo Fisher Scientific). PCR products were sequenced using a specific sequencing primer, and the ratio of A and G peaks in the chromatograms were analyzed by CodonCode Aligner (CodonCode Corporation).

For the next experiment, the system named is HeLa cells. The experiment in a line: Dot blot analysis for RNA:DNA hybrids (R-loops). The following applies: 10 μM for ADAR1i-124. It counts as cell-based, human.

Entries after “also recorded” stand apart in the source; their conditions may differ.

By IC50 is commonly meant the point on the concentration scale where inhibition reaches its midpoint.

Take `N#Cc1ccc(NC(=O)c2sc3ccccc3c2Cl)cc1` [ADAR1i-13, 3-chloro-N-(4-cyanophenyl)-1-benzothiophene-2-carboxamide]: on ADAR1p110, the IC50 was 10 to 20 µM and the “Inhibition of ADAR1p110 editing” value is recorded as “inhibited ADAR1p110 editing of all three substrates tested, including the DNA:RNA hybrid substrate”. Besides, the “Substrate preference of editing inhibition (matched vs A-C mismatched dsRNA)” value on ADAR1p110 (recombinant ADAR1p110, matched and mismatched dsRNA substrates, 10 microM test compound) is listed as “preferentially inhibited matched adenosines”. Moreover, the “Formation of R-loops (RNA:DNA hybrids)” value with HeLa cells is reported as “increased formation of R-loops”.
`N#Cc1ccccc1NC(=O)c1sc2ccccc2c1Cl` [ADAR1i-120]: at ADAR1p110, the IC50 was in the range of 10 to 20 µM and the “Inhibition of ADAR1p110 editing” value is listed as “ADAR1 inhibitory activities”. Besides, the “Formation of R-loops (RNA:DNA hybrids)” value with HeLa cells is listed as “increased formation of R-loops”.
For `N#Cc1ccc(NC(=O)c2c(Cl)c3ccccc3n2CO)cc1` [ADAR1i-124], at ADAR1p110, the IC50 was in the range of 10 to 20 µM; the “Inhibition of ADAR1p110 editing” value was “ADAR1 inhibitory activities; also recorded: inhibited both ADAR1p150 and ADAR1p-110”. Besides, the “Formation of R-loops (RNA:DNA hybrids)” value with HeLa cells is “increased formation of R-loops; also recorded: RNA:DNA hybrids induced”.
